Data as given in patent US12304912B2, “Fused bicyclic RAF inhibitors and methods for use thereof” (Jazz Pharmaceuticals Ireland Limited, priority 2020, dated 2025).
In brackets after ≈: the same amount, converted by molar mass. Read-outs that look alike come from different tables or passages of the source.

Experiments:
FeSSIF solubility assay = format: physicochemical; conditions: fed state simulated intestinal fluid (FeSSIF), thermodynamic from solid, pH 5 acetate buffer, 37° C., read-out: FESSIF Sol
Method: FeSSIF Solubility Assay 1 mL of fed state simulated intestinal fluid (FeSSIF), prepared using FaSSIF/FeSSIF/FaSSGF powder (Biorelevant.com) and pH 5 acetate buffer, was added to 1.0 mg of compound and then incubated for 24 h (Bioshake iQ, 650 rpm, 37° C.). Following filtration under positive pressure, the concentration of compound in solution was assessed by LC-UV in comparison to the response for a calibration standard of known concentration (250 μM). FeSSIF solubility results are described in Tables 1-2.

[1] = tested on: constitutive ERK phosphorylation in HCT-116 cells; test: HCT-116 AlphaLISA SureFire pERK1/2 cellular assay; format: cell-based, human; conditions: Homo sapiens, read-out: pERK HCT116 (2 hr) Abs pIC50 (converted)
Method: HCT-116 AlphaLISA SureFire pERK1/2 Cellular Assay […] […] Assay read outs took place 2 or 24 hours after dosing with compounds. On the first day, HCT-116 cells were harvested, resuspended in growth medium (McCoys5A with Glutamax (Life Technologies 36600021) and 10% heat-inactivated fetal bovine serum (Sigma F9665)), and counted. Cells were plated in 100 μl per well in each well of a 96-well culture dish (Sigma CLS3598) to a final density of 30,000 (2 hr read) or 15,000 (24 hr read) cells per well and incubated over night at 37° C. and 5% CO2. On day 2, the growth medium was exchanged for dosing medium (McCoys5A with Glutamax (Life Technologies 36600021) and 1% heat-inactivated fetal bovine serum (Sigma F9665)) and the cells were dosed with compounds to produce a 10-point dose response, where the top concentration was 1 μM and subsequent concentrations were at 1/3 log dilution intervals. A matched DMSO control was included. The cells were subsequently incubated for either 2 or 24 hours at 37° C. and 5% CO2. After incubation, media was removed and the cells were incubated with lysis buffer containing phosphatase inhibitors for 15 minutes at room temperature. Cell lysates were transferred to a 12 area 96 well white Optiplate™ (Perkin Elmer 6005569) and incubated with anti-mouse IgG acceptor beads, a biotinylated anti-ERK1/2 rabbit antibody recognizing both phosphorylated and non-phosphorylated ERK1/2, a mouse antibody targeted to the Thr202/Tyr204 epitope and recognizing phosphorylated ERK proteins only, and streptavidin-coated donor beads. The biotinylated antibody binds to the streptavidin-coated donor beads and the phopsho-ERK1/2 antibody binds to the acceptor beads. […] Both antibodies bound to phosphorylated ERK proteins, bringing the donor and acceptor beads into close proximity. All data were analyzed using the Dotmatics or GraphPad Prism software packages. Inhibition of ERK phosphorylation was assessed by determination of the absolute IC50 value, which is defined as the concentration of compound required to decrease the level of phosphorylated ERK proteins by 50% when compared to DMSO control.

[2] = Microsomal stability assay, human liver microsomes (HLM); format: in vitro ADME; conditions: 0.5 mg/mL protein, 1 μM substrate, 37° C.
Method: (§1) Microsomal Stability Assay
(§2) The stability studies were performed manually using the substrate depletion approach. Test compounds were incubated at 37° C. with cryo-preserved mouse or human liver microsomes (Corning) at a protein concentration of 0.5 mg·mL^−1 and a final substrate concentration of 1 μM. Aliquots were removed from the incubation at defined timepoints and the reaction was terminated by adding to ice-cold organic solvent. Compound concentrations were determined by LC-MS/MS analysis. The natural log of the percentage of compound remaining was plotted against each time point and the slope determined. The half-life (t1/2) and CLint were calculated using Equations 1 and 2, respectively.
(§3) HLM (human liver microsomes) and MLM (mouse liver microsomes) stability assay results are described in Tables 1-2.

[3] = Microsomal stability assay, mouse liver microsomes (MLM); format: in vitro ADME; conditions: 0.5 mg/mL protein, 1 μM substrate, 37° C.
Method: as §1, §2, §3

[4] = Plasma protein binding assay, mouse plasma (mPPB); format: in vitro ADME; conditions: 5 μM, equilibrium dialysis 4 hours at 37° C.
Method: (§4) Plasma Protein Binding Assay The plasma protein binding was determined by the equilibrium dialysis method. A known concentration of compound (5 μM) in previously frozen human or mouse plasma (Sera Labs) was dialysed against phosphate buffer using a RED device (Life Technologies) for 4 hours at 37° C. The concentration of compound in the protein containing (PC) and protein free (PF) sides of the dialysis membrane were determined by LC-MS/MS and the % free compound was determined by equation 4. Data analysis was performed using Excel (Microsoft, USA). % free=(1−((PC−PF)/PC))×100 (4) hPPB (human plasma protein binding) and mPPB (mouse plasma protein binding) results are described in Tables 1-2.

[5] = Plasma protein binding assay, human plasma (hPPB); format: in vitro ADME; conditions: 5 μM, equilibrium dialysis 4 hours at 37° C.
Method: as §4

[6] = HCT-116, HCT116 cells, 2 hr, Abs

Structure (SMILES)	solubility thermodynamic at 24 h (FeSSIF solubility assay) [µg/mL]	IC50 [1, 6] [µM]	microsomal CLint at 1 μM [2] [µL/min/mg]	microsomal CLint at 1 μM [3] [µL/min/mg]	mPPB (% free) [4] [% free]	hPPB (% free) [5] [% free]	IC50 ([1]; HCT-116, 2 h) [µM]
c1ccc(-c2c[nH]c(C3COc4ccc(Oc5ccnc(NC6CCC6)c5)cc4C3)n2)cc1 (centres unmarked) [Compound 142, N-cyclobutyl-4-[3-(4-phenyl-1H-imidazol-2-yl)chroman-6-yl]oxy-pyridin-2-amine]	135 (≈ 309 µM)	> 1					
CC(C(=O)Nc1cc(Oc2ccc3c(c2)CC(c2nc(-c4ccccc4)c[nH]2)CO3)ccn1)N1CCOCC1 (centres unmarked) [Compound 150, 2-morpholino-N-[4-[3-(4-phenyl-1H-imidazol-2-yl)chroman-6-yl]oxy-2-pyridyl]propanamide]	235 (≈ 448 µM)						> 1
CC(=O)N1CCc2nc(C3COc4ccc(Oc5ccnc6c5CCC(=O)N6)cc4C3)[nH]c2C1 (centres unmarked) [Compound 135, 5-[3-(5-acetyl-3,4,6,7-tetrahydroimidazo[4,5-c]pyridin-2-yl)chroman-6-yl]oxy-3,4-dihydro-1H-1,8-naphthyridin-2-one]	33.2 (≈ 72.3 µM)						> 1
O=C1CCc2c(Oc3ccc4c(c3)CN(c3nc5cc(-c6ccccc6)ccc5[nH]3)CC4)ccnc2N1 [Compound 162, 5-[[2-(5-phenyl-1H-benzimidazol-2-yl)-3,4-dihydro-1H-isoquinolin-7-yl]oxy]-3,4-dihydro-1H-1,8-naphthyridin-2-one]	13.7 (≈ 28.1 µM)	> 1					

More lines, main results first:

solubility thermodynamic at 24 h (FeSSIF solubility assay) [µg/mL]	IC50 [1, 6] [µM]	microsomal CLint at 1 μM [2] [µL/min/mg]	microsomal CLint at 1 μM [3] [µL/min/mg]	mPPB (% free) [4] [% free]	hPPB (% free) [5] [% free]	Structure (SMILES)	IC50 ([1]; HCT-116, 2 h) [µM]
< 1.1	> 1					Cc1nn(C)cc1-c1c[nH]c(C2COc3ccc(Oc4ccnc5c4CCC(=O)N5)cc3C2)n1 (centres unmarked) [Compound 109, 5-[3-[4-(1,3-dimethylpyrazol-4-yl)-1H-imidazol-2-yl]chroman-6-yl]oxy-3,4-dihydro-1H-1,8-naphthyridin-2-one]	
16.7 (≈ 33.9 µM)	> 1					Cn1cnc2cc(-c3c[nH]c(C4COc5ccc(Oc6ccnc7c6CCC(=O)N7)cc5C4)n3)ccc21 (centres unmarked) [Compound 129, 5-[3-[4-(1-methylbenzimidazol-5-yl)-1H-imidazol-2-yl]chroman-6-yl]oxy-3,4-dihydro-1H-1,8-naphthyridin-2-one]	
38.2 (≈ 77.1 µM)	> 1	207	137	0.4	0.4	CC(C)(C)c1cc(-c2c[nH]c(C3COc4ccc(Oc5ccnc6c5CCC(=O)N6)cc4C3)n2)ccn1 (centres unmarked) [Compound 121, 5-[3-[4-(2-tert-butyl-4-pyridyl)-1H-imidazol-2-yl]chroman-6-yl]oxy-3,4-dihydro-1H-1,8-naphthyridin-2-one]	
< 1	> 1	19.8	34.4	0.5	1.0	O=C1CCc2c(Oc3ccc4c(c3)CN(c3nc5ccccc5[nH]3)CC4)ccnc2N1 [Compound 159, 5-[[2-(1H-benzimidazol-2-yl)-3,4-dihydro-1H-isoquinolin-7-yl]oxy]-3,4-dihydro-1H-1,8-naphthyridin-2-one]	
< 1.2	0.724	74.2	35.8	0.9	0.6	O=C1CCc2c(Oc3ccc4c(c3)CC(c3nc(-c5ccnc(C6CC6)c5)c[nH]3)CO4)ccnc2N1 (centres unmarked) [Compound 119, 5-[3-[4-(2-cyclopropyl-4-pyridyl)-1H-imidazol-2-yl]chroman-6-yl]oxy-3,4-dihydro-1H-1,8-naphthyridin-2-one]	
661 (≈ 1440 µM)	> 1					CC(C)N1CCc2nc(C3COc4ccc(Oc5ccnc6c5CCC(=O)N6)cc4C3)[nH]c2C1 (centres unmarked) [Compound 133, 5-[3-(5-isopropyl-3,4,6,7-tetrahydroimidazo[4,5-c]pyridin-2-yl)chroman-6-yl]oxy-3,4-dihydro-1H-1,8-naphthyridin-2-one]	
